According to US11124523B2, “2,6-dioxaspiro [4,5] decane derivatives and preparation method therefor and pharmaceutical applications thereof” (SHANDONG LUYE PHARMACEUTICAL CO., LTD., priority 2017, dated 2021):
Counter-ions that a name gives are not always drawn.

Legend:
CYP2D6 = CYP2D6 (Homo sapiens (Human), UniProt P10635); test: Inhibition of cytochrome P450 isoenzymes, CYP2D6; format: in vitro ADME; conditions: read-out: CYP 2D6 IC50
Protocol: (§1) 4.1 Experimental Purpose: To test the inhibitory effects of the compounds of the present disclosure on different isoforms of human cytochrome P450 isoenzymes
(§2) 1) The activities of CYP1A2, 2C9, 2C19, 2D6, and 3A4 were measured using a standard substrate method. In each reaction, the enzyme activities were measured in the presence and absence of the substance to be tested, wherein a single sample was measured at a total of eight test concentrations. A 5-in-1 mixed inhibitor was used.
(§3) 2) An incubation matrix comprising microsomes, a substrate, and an inhibitor or the compound to be tested was pre-incubated at 37° C. for 5 minutes, and then NADPH was added to start the reaction.
(§4) 3) After the incubation, acetonitrile with an internal standard was added to stop the reaction.
(§5) 4) Metabolites generated by the substrates were measured by using the LC-MS/MS method, and the peak area ratio of each metabolite to the internal standard was evaluated and the inhibition rate and IC50 were calculated.

[1] = molecular target: T1, human μ-subtype opioid receptor (hMOR) (Homo sapiens (Human), UniProt P35372); test: MOR β-arrestin-2 agonist activity test; format: cell-based; conditions: for EC50: >30000 nM = greater than the highest detection concentration, read-out: MOR β-arrestin-2 EC50; for Emax: maximum effect of enkephalin DAMGO was 100%, about 0% = no actual agonist activity
Protocol: Test 2: β-Arrestin-2 Agonist Activity Test
2.1 Experimental Purpose: To test the β-arrestin-2 agonist activity of the compounds of the present disclosure on the human μ-subtype opioid receptor (hMOR).
a. All samples were dissolved in DMSO to a storage concentration of 10 mM.
(§6) b. A series of diluted samples were formulated on a 384-well LDV plate. A total of 11 concentration points were obtained by 3.162-fold gradient dilution.
c. The series of diluted samples were transferred to an experimental plate by using an Echo machine, wherein 60 nL of the compound was transferred corresponding to each well.
d. 60 nL of 3.33 mM DAMGO (as HPE) and 60 nL of DMSO (as ZPE) were transferred to the corresponding positions on the experimental plate by using the Echo machine.
The experiment was performed using PathHunter Detection Kit from DiscoveRX Cooperation (DiscoveRX #93-0213C3)
a. Assay buffer and PathHunter detection reagent required for the experiment were formulated.
Assay Buffer: 1×DPBS buffer
PathHunter Detection Reagent: The kit was provided therein with three constituents.
c. The experimental plate was centrifuged at 300 rpm for 30 s and incubated at room temperature for 2 hours.
d. 6 μL of the PathHunter detection reagent was added to each well of the experimental plate.
e. The experimental plate was centrifuged at 300 rpm for 30 seconds, then left at room temperature for 60 minutes, and then read on the Envision.

CYP3A4 = CYP3A4 (Homo sapiens (Human), UniProt P08684); test: Inhibition of cytochrome P450 isoenzymes, CYP3A4; format: in vitro ADME; conditions: >50 μM: inhibitory effect less than 50% at 50 μM; read-out: CYP 3A4 IC50
CYP3A4, sequence (P08684 whole entry): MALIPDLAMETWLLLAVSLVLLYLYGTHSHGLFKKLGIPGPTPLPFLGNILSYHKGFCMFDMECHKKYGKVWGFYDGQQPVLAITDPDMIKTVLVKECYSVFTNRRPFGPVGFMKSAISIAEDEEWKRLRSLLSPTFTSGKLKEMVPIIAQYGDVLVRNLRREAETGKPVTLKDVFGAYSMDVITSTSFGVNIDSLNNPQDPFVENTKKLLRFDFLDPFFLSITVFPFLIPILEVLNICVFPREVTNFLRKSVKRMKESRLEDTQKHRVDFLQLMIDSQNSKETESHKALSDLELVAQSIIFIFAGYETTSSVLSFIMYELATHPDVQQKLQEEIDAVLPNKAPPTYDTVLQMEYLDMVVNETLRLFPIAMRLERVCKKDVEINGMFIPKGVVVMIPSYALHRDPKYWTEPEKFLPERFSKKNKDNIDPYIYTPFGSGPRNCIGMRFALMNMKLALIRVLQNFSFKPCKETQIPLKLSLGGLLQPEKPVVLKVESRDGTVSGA
Protocol: as §1, §2, §3, §4, §5

[2] = Metabolic stability in liver microsomes; format: in vitro ADME; conditions: pH 7.4; human liver microsomes 0.5 mg protein/mL; 45 mg microsome protein/g liver, 20 g liver/kg; read-out: Intrinsic Clearance CLint(liver) in Human Liver
Protocol: Test 3: Metabolic Stability in Liver Microsomes
3.1 Experimental Purpose: To test the metabolic stability of the compounds of the present disclosure in human liver microsomes
a. All samples as well as testosterone, diclofenac and propafenone acting as reference substances were dissolved in DMSO to a storage concentration of 10 mM.
b. Intermediate Solution: 5 μL of the substance to be tested or the reference substance was diluted with 45 μL of DMSO (with 450 μL of 1:1 methanol/water).
c. Working Solution: the intermediate solution was diluted with 450 μL of 100 mM potassium phosphate buffer solution (pH 7.4).
Assay Buffer: 100 mM potassium phosphate buffer (pH 7.4) • 10 mM MgCl2
Liver Microsome Solution (final concentration: 0.5 mg protein/mL):
Human liver microsomes, obtained from BD, Cat No. 452117, Lot No. 38291
b. 10 μL of the working solution containing the substance to be tested or the reference substance was added to each of plates (T0, T5, T10, T20, T30, T60, NCF60).
c. The liver microsome solution was dispensed into a 96-well plate in an amount of 680 μL/well, then 80 was added, and then T was added to each of the plates. The above incubation plate was placed at 37° C. and pre-incubated for approximately 10 minutes.
d. 10 μL of 100 mM potassium phosphate buffer was added to each well in the NCF60 plate.
e. After the pre-incubation was finished, the NADPH regeneration system working solution was dispensed into the 96-well plate in an amount of 90 μL/well, and then added to each of the plates in an amount of 10 μL/well to start the reaction.
f. The plates were incubated for an appropriate time (e.g., 5, 10, 20, 30, or 60 minutes).
g. The stop solution (refrigerated at 4° C., containing 100 ng/mL Tolbutamide and 100 ng/mL Labetalol) was added to each sample well in an amount of 300 μL/well.
h. The sample plates were shaken well for about 10 minutes and centrifuged at 4,000 rpm for 20 minutes at 4° C. During the centrifugation, 300 μL of HPLC water was added to each well, and 100 μL of the supernatant was taken for LC-MS/MS analysis.
T1/2 and Clint(mic) were calculated by the following formula: […]
Each gram of liver contained 45 mg of microsome protein, and the liver weight was 20 g/kg in a human.
Ct was the concentration at time t, t was the incubation time, C0 was the concentration at time 0, Ke was an elimination rate constant, Clint(mic) was the intrinsic clearance in liver microsomes, and Clint(liver) was the intrinsic clearance in liver. CLint(mic)=0.693/half-life/mg of microsome protein per mL(concentration of microsomes during incubation) CLint(liver)=CLint(mic)×mg of microsome protein/g of liver weight×a ratio of liver weight to body weight 3.4 Test Results

CYP2C9 = CYP2C9 (Homo sapiens (Human), UniProt P11712); test: Inhibition of cytochrome P450 isoenzymes, CYP2C9; format: in vitro ADME; conditions: >50 μM: inhibitory effect less than 50% at 50 μM; read-out: CYP 2C9 IC50
CYP2C9, sequence (P11712 whole entry): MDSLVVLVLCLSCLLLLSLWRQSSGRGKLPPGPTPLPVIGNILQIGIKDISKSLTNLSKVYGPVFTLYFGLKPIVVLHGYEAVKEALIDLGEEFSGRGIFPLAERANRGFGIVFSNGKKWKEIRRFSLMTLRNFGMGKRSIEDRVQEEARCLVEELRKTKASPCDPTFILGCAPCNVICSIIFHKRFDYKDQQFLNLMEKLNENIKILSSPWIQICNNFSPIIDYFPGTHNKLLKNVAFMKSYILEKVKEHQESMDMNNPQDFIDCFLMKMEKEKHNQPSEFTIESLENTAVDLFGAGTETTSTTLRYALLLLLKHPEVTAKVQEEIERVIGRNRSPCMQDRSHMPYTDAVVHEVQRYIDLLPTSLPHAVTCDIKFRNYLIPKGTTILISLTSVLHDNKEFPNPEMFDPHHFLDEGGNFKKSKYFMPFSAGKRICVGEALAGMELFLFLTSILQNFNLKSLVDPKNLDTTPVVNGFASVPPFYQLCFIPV
Protocol: as §1, §2, §3, §4, §5

[3] = molecular target: T1, human μ-subtype opioid receptor (hMOR); test: MOR cAMP agonist activity test; format: cell-based; conditions: for Emax: maximum effect of enkephalin DAMGO was 100%
Protocol: Test 1: MOR cAMP Agonist Activity Test
1.1 Experimental Purpose: To test the cAMP agonist activity of the compounds of the present disclosure on the human μ-subtype opioid receptor (hMOR).
a. Compound samples were dissolved in DMSO to a storage concentration of 10 mM.
as §6
c. The series of diluted samples were transferred to an experimental plate (Corning-3824) by using an Echo machine, wherein 30 nL was transferred corresponding to each well.
The experiment was performed using a cAMP detection kit from Cisbio (Cisbio #62AM4PEJ).
a. Assay buffer and stimulation buffer (STB) required for the experiment were formulated.
Stimulation Buffer: formulated with the assay buffer, containing 5 μM NKH477 (CAS: 138605-00-2) and 200 μM IBMX (3-isobutyl-1-methylxanthine)
b. […] The number of cells in the well was 10,000 cells/well.
c. The experimental plate was placed in a 37° C. constant-temperature incubator for incubation. The incubation was performed for 40 minutes.
d. A cAMP standard concentration curve was prepared. The first concentration point was at 2848 nM, and a total of sixteen detection concentrations were obtained by 4-fold gradient dilution. There were three replicates for each concentration point.
e. The cAMP detection kit from Cisbio was provided therein with a d2-labeled cAMP reagent (d2 reagent) and an Eu-labeled cAMP antibody reagent (Crypate reagent). The above two reagents were formulated according to the kit instructions, and then added to the sample experimental plate and to the cAMP standard concentration experimental plate, respectively. It was necessary to add 5 μL of the d2 reagent and then 5 μL of the Cryptate reagent to each well.
f. After the experimental plates were left at room temperature for 60 minutes, the experimental plates were read on the Envision.

CYP2C19 = CYP2C19 (Homo sapiens (Human), UniProt P33261); test: Inhibition of cytochrome P450 isoenzymes, CYP2C19; format: in vitro ADME; conditions: >50 μM: inhibitory effect less than 50% at 50 μM; read-out: CYP 2C19 IC50
CYP2C19, sequence (P33261 whole entry): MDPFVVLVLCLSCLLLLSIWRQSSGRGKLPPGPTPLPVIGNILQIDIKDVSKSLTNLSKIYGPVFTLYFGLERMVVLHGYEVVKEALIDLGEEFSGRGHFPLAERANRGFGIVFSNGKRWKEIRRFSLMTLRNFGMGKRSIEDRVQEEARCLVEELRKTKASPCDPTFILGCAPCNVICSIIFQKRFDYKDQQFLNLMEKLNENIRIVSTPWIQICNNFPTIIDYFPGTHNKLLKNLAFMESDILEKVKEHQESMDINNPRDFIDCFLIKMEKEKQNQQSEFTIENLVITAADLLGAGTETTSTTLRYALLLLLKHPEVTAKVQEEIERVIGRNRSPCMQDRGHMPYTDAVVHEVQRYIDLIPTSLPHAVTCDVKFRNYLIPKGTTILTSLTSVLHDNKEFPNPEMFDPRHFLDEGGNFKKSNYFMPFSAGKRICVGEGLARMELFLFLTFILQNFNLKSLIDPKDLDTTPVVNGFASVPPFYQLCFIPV
Protocol: as §1, §2, §3, §4, §5

hERG potassium channels = hERG potassium channels (Homo sapiens (Human), UniProt Q12809); test: Effects on hERG potassium channels (Qpatch, CHO-hERG cells); format: cell-based; conditions: highest test concentration 40 μM, read-out: IC50 representing the blocking effects of hERG potassium currents
hERG potassium channels, sequence (Q12809 whole entry): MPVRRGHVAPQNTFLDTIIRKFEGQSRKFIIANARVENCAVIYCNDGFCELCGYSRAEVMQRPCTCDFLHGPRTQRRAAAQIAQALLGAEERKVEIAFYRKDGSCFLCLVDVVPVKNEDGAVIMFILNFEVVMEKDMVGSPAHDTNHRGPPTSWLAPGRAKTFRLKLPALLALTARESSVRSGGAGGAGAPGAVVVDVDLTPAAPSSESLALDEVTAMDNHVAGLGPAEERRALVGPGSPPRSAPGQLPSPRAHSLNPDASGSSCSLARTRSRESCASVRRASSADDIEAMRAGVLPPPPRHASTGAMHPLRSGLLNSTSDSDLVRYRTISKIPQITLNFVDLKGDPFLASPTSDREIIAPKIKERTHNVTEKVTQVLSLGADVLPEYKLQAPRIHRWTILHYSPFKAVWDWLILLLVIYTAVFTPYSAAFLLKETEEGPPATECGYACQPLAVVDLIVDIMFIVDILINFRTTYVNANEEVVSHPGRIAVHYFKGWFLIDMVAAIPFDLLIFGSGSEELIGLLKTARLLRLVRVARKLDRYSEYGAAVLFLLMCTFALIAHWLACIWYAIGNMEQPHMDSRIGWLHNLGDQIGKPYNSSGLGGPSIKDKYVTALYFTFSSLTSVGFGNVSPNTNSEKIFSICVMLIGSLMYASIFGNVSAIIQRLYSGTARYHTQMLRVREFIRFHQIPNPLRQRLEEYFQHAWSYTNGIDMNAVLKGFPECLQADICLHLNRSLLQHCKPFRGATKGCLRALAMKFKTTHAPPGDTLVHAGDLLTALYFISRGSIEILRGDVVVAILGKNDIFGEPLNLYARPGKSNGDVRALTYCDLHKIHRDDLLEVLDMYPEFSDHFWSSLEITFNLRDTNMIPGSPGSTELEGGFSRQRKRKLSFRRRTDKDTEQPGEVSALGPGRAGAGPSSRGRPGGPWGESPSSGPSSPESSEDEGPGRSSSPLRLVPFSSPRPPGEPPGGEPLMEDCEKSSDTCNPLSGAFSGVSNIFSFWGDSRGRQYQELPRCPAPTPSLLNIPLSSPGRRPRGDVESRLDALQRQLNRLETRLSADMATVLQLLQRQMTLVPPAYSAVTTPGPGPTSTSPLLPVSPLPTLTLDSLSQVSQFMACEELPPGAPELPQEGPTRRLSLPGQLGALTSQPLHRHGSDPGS
Protocol: 5.1 Experimental Purpose: To test the blocking effects of the compounds of the present disclosure on hERG potassium currents.
a. CHO-hERG cells were cultured in a 175 cm^2 culture flask. When the cells were grown to a density of 60 to 80%, the culture solution was removed, and the cells were washed once with 7 mL of PBS (phosphate buffer solution), and then 3 mL of a cell digestion solution (Detachin) was added for digestion of the cells.
b. After completely digested, the cells were neutralized by adding 7 mL of the culture solution and then centrifuged, the supernatant was removed, and then 5 mL of the culture solution was added for resuspension to ensure a cell density of 2 to 5×10^6 cells/mL.
The single-cell high-impedance sealing and whole-cell pattern formation processes were both carried out automatically by the Qpatch instrument. After the whole-cell recording pattern was obtained, the cells were clamped at −80 millivolts. A preceding voltage of −50 millivolts was applied for 50 milliseconds prior to application of a depolarizing stimulus of +40 millivolts for 5 seconds, and then the cells were repolarized to −50 millivolts and maintained for 5 seconds and then returned back to −80 millivolts. This voltage stimulation was applied every 15 seconds, and data were recorded for 2 minutes, and thereafter the extracellular fluid was administered and data were recorded for 5 minutes, and then the administration process was started. The compound was administered for 2.5 minutes at each test concentration from the lowest test concentration. After all the concentrations of the compound were administered, […] of Cisapride was administered as a positive comparative compound. At least three cells (n>3) were tested for each concentration.
a. A 20 mM compound mother solution was diluted with the extracellular fluid, wherein 5 μL of the 20 mM compound mother solution was taken and diluted 500 times to 40 μM by adding 2495 μL of the extracellular fluid thereto, and then 3-fold serial dilutions were performed sequentially in the extracellular fluid containing 0.2% DMSO to obtain a final concentration to be tested.
b. The highest test concentration was 40 μM, and there were six concentrations in total, i.e., 40, 13.33, 4.44, 1.48, 0.49, and 0.16 μM, respectively.
c. The DMSO content in the final test concentration was not more than 0.2%. This concentration of DMSO had no effect on the hERG potassium channel.
The experimental data were analyzed by XLFit software.

CYP2D6, sequence (P10635 whole entry, canonical isoform): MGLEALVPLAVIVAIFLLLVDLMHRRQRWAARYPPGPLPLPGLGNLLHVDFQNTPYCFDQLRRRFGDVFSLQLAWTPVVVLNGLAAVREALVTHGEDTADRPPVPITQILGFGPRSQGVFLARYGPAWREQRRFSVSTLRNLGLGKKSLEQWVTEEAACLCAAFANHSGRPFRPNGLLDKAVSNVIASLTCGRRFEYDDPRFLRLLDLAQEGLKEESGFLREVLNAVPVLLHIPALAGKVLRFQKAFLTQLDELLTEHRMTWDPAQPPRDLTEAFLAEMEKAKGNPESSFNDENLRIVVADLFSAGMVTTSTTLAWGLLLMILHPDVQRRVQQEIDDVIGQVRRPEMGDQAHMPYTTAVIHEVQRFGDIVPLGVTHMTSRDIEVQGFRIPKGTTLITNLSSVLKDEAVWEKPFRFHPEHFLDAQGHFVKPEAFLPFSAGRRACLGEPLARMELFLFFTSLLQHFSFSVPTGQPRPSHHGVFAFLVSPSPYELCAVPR

For `Clc1cccc(CNCC[C@@]2(c3ccccn3)CCO[C@]3(CCOC3)C2)c1` [(+)-8], the IC50 (CYP2D6) was 17.3 µM, the EC50 [1] was > 30 µM and the Emax [1] was ~0%. The IC50 (CYP3A4) was > 50 µM, the CLint scaled [2] was 10 mL/min/kg and the IC50 (CYP2C9) was > 50 µM. For the same compound, the EC50 [3] was 0.0018 µM, the Emax [3] was 85.3% and the IC50 (CYP2C19) was > 50 µM.

With `Cc1cccc(CNCC[C@@]2(c3ccccn3)CCO[C@]3(CCOC3)C2)c1` [(+)-9] the IC50 (CYP2D6) was 23.4 µM, the EC50 [1] was > 30 µM and the Emax [1] was ~0%. The IC50 (CYP3A4) was 21.9 µM, the CLint scaled [2] was 8.8 mL/min/kg and the IC50 (CYP2C9) was > 50 µM. For the same compound, the EC50 [3] was 0.0061 µM, the Emax [3] was 88.9% and the IC50 (CYP2C19) was > 50 µM.

With `Fc1cc(Cl)cc(CNCC[C@@]2(c3ccccn3)CCO[C@]3(CCOC3)C2)c1` [(+)-18] the IC50 (CYP2D6) was 24.5 µM, the EC50 [1] was > 30 µM and the Emax [1] was ~0%. For the same compound, the IC50 (CYP3A4) was > 50 µM, the CLint scaled [2] was 84.9 mL/min/kg and the IC50 (CYP2C9) was > 50 µM. For the same compound, the EC50 [3] was 0.0042 µM, the Emax [3] was 87.7% and the IC50 (CYP2C19) was > 50 µM.

`Fc1ccc([C@]2(CCNCc3cccc(Cl)c3)CCO[C@]3(CCOC3)C2)nc1` [Hydrochloride Salt of (+)-16] gave an IC50 (hERG potassium channels) of 22.8 µM.
